Results on 28 compounds are retold here after patent US20240018145A1, “[…]-DEPENDENT EN[…] TREATING OR […]” (priority 2020, published 2024).

Where two headings read alike, the source gives them in different places.

In the assay the test system is FLU A (PR/8/34). In words: Flu A Neuraminidase Antiviral Assay. Format: cell-based.

Broadly, the EC50 is the concentration needed to bring the measured effect to its halfway point. Read a low EC50 as a more potent agent. In turn, `CC1(c2ncc(F)cc2F)CCCC2N(CC(F)F)C(=O)c3c(O)c(=O)ccn3N21` (single isomer, unassigned) [Compound 47A, 5-(2,2-difluoroethyl)-1-(3,5-difluoropyridin-2-yl)-7-hydroxy-1-methyl-1,2,3,4,4a,5-hexahydrodipyrido[1,2-b:2′,1′-f][1,2,4]triazine-6,8-dione] yielded an EC50 of 25.7 nM.

Turning to `CN1C(=O)c2c(O)c(=O)ccn2N2C1CCCC2(C)c1ccc(F)cc1` (single isomer, unassigned) [Compound 26A, 1-(4-fluorophenyl)-7-hydroxy-1,5-dimethyl-1,2,3,4,4a,5-hexahydrodipyrido[1,2-b:2′,1′-f][1,2,4]triazine-6,8-dione], the EC50 was found to be 8.4 nM. Take `CN1C(=O)c2c(O)c(=O)ccn2N2C(c3ccccc3)C3CCC(C3)C12` (single isomer, unassigned) [Compound 9A, 4-hydroxy-6-methyl-11-phenyl-6a,7,8,9,10,11-hexahydro-3H-7,10-methanopyrido[1′,2′:1,6][1,2,4]triazino[2,3-a]azepine-3,5(6H)-dione]: the EC50 turned out to be 6210 nM. Against the preceding compound, the EC50 is about 740-fold higher. Take `CCCC1CCC2N(C)C(=O)c3c(O)c(=O)ccn3N2C1c1ccccc1Cl` (stereo not shown) [Compound 65B, 1-(2-chlorophenyl)-7-hydroxy-5-methyl-2-propyl-1,2,3,4,4a,5-hexahydrodipyrido[1,2-b:2′,1′-f][1,2,4]triazine-6,8-dione]: the response was half-maximal at 2.8 nM (EC50). This EC50 lies about 2200-fold lower than the previous one. The same measure, in the same setting: in the case of `Cc1ccnc(C2(C)CCCC3N(CC(F)(F)F)C(=O)c4c(O)c(=O)ccn4N32)c1` (single isomer, unassigned) [Compound 50B, 7-hydroxy-1-methyl-1-(4-methylpyridin-2-yl)-5-(2,2,2-trifluoroethyl)-1,2,3,4,4a,5-hexahydrodipyrido[1,2-b:2′,1′-f][1,2,4]triazine-6,8-dione] it was 9 nM. `CN1C(=O)c2c(O)c(=O)ccn2N2C(c3ccccc3)CCCC12` (single isomer, unassigned) [Compound 1A, 7-hydroxy-5-methyl-1-phenyl-1,2,3,4,4a,5-hexahydrodipyrido[1,2-b:2′,1′-f][1,2,4]triazine-6,8-dione] yielded an EC50 of more than 8100 nM. As for `CN1C(=O)c2c(O)c(=O)ccn2N2C(c3c(F)cccc3F)CCCC12` (single isomer, unassigned) [Compound 7B, 1-(2,6-difluorophenyl)-7-hydroxy-5-methyl-1,2,3,4,4a,5-hexahydrodipyrido[1,2-b:2′,1′-f][1,2,4]triazine-6,8-dione], the response was half-maximal at 256 nM (EC50).

Compound `CN1C(=O)c2c(O)c(=O)ccn2N2C(c3ccccc3)C(CCC(F)(F)F)CCC12` (single isomer, unassigned) [Compound 128A, 7-hydroxy-5-methyl-1-phenyl-2-(3,3,3-trifluoropropyl)-1,2,3,4,4a,5-hexahydrodipyrido[1,2-b:2′,1′-f][1,2,4]triazine-6,8-dione] registered an EC50 of 799 nM. Still for that read-out and setting: with `CN1C(=O)c2c(O)c(=O)ccn2N2C(c3ccccc3)C(CC3CC3(F)F)CCC12` (single isomer, unassigned) [Compound 114A, 2-((2,2-difluorocyclopropyl)methyl)-7-hydroxy-5-methyl-1-phenyl-1,2,3,4,4a,5-hexahydrodipyrido[1,2-b:2′,1′-f][1,2,4]triazine-6,8-dione] the figure was more than 8100 nM; with `CC1(c2ccccc2)CCCC2N(CC3CC4(CCC4)C3)C(=O)c3c(O)c(=O)ccn3N21` (single isomer, unassigned) [Compound 42B, 7-hydroxy-1-methyl-1-phenyl-5-(spiro[3.3]heptan-2-ylmethyl)-1,2,3,4,4a,5-hexahydrodipyrido[1,2-b:2′,1′-f][1,2,4]triazine-6,8-dione], 49.5 nM; with `CN1C(=O)c2c(O)c(=O)ccn2N2C1CCC2(C)c1ccccc1` (single isomer, unassigned) [Compound 61A, 6-hydroxy-1,4-dimethyl-1-phenyl-2,3,3a,4-tetrahydro-1H-pyrido[2,1-f]pyrrolo[1,2-b][1,2,4]triazine-5,7-dione], 122 nM. Regarding `Cc1ccccc1C1N2C(CCC13CC1C(C3)C1(F)F)N(C)C(=O)c1c(O)c(=O)ccn12` (single isomer, unassigned) [Compound 69B, 6,6-difluoro-7′-hydroxy-5′-methyl-1′-(o-tolyl)-3′,4′,4a′,5′-tetrahydro-1′H-spiro[bicyclo[3.1.0]hexane-3,2′-dipyrido[1,2-b:2′,1′-f][1,2,4]triazine]-6′,8′-dione], the response was half-maximal at 57 nM (EC50). `CCCC1CCC2C(n3ccc(=O)c(O)c3C(=O)N2C)C1(O)c1ccccc1` (single isomer, unassigned) [Compound 166B, 1,7-dihydroxy-5-methyl-1-phenyl-2-propyl-1,3,4,4a,5,11a-hexahydro-2H-pyrido[1,2-a]quinoxaline-6,8-dione] yielded an EC50 of more than 8100 nM. As to `CC(C1CCC2N(C)C(=O)c3c(O)c(=O)ccn3N2C1c1ccccc1)C(F)(F)F` (single isomer, unassigned) [Compound 109A, 7-hydroxy-5-methyl-1-phenyl-2-(1,1,1-trifluoropropan-2-yl)-1,2,3,4,4a,5-hexahydrodipyrido[1,2-b:2′,1′-f][1,2,4]triazine-6,8-dione], the EC50 amounted to 803 nM. `CC1(c2ccccc2)CCCC2N(CC3CC(F)(F)C3)C(=O)c3c(O)c(=O)ccn3N21` (single isomer, unassigned) [Compound 45B, 5-((3,3-difluorocyclobutyl)methyl)-7-hydroxy-1-methyl-1-phenyl-1,2,3,4,4a,5-hexahydrodipyrido[1,2-b:2′,1′-f][1,2,4]triazine-6,8-dione]: it took 10.6 nM to reach a half-maximal effect (EC50). Consider `CN1C(=O)c2c(O)c(=O)ccn2N2C(c3ccccc3)C(CC(F)F)CCC12` (single isomer, unassigned) [Compound 129B, 2-(2,2-difluoroethyl)-7-hydroxy-5-methyl-1-phenyl-1,2,3,4,4a,5-hexahydrodipyrido[1,2-b:2′,1′-f][1,2,4]triazine-6,8-dione], for which the concentration for a half-maximal effect (EC50) amounted to 196 nM. Compound `CC1(c2ccccn2)CCCC2N(CC(F)(F)F)C(=O)c3c(O)c(=O)ccn3N21` (single isomer, unassigned) [Compound 39A, 7-hydroxy-1-methyl-1-(pyridin-2-yl)-5-(2,2,2-trifluoroethyl)-1,2,3,4,4a,5-hexahydrodipyrido[1,2-b:2′,1′-f][1,2,4]triazine-6,8-dione] registered an EC50 of more than 8100 nM. The compound `CN1C(=O)c2c(O)c(=O)ccn2N2C1CCC(C)(CC(F)(F)F)C2c1ccccc1` (single isomer, unassigned) [Compound 71B, 7-hydroxy-2,5-dimethyl-1-phenyl-2-(2,2,2-trifluoroethyl)-1,2,3,4,4a,5-hexahydrodipyrido[1,2-b:2′,1′-f][1,2,4]triazine-6,8-dione] showed an EC50 of 18.5 nM. On to `Cc1cccc(C2(C)CCCC3N(CC(F)F)C(=O)c4c(O)c(=O)ccn4N32)n1` (single isomer, unassigned) [Compound 54A, 5-(2,2-difluoroethyl)-7-hydroxy-1-methyl-1-(6-methylpyridin-2-yl)-1,2,3,4,4a,5-hexahydrodipyrido[1,2-b:2′,1′-f][1,2,4]triazine-6,8-dione], for which the EC50 was more than 810 nM. The same measure, in the same setting: with `CN1C(=O)c2c(O)c(=O)ccn2N2C(c3ccccc3)C(c3cc(F)c(F)cc3F)CCC12` (single isomer, unassigned) [Compound 86D, 7-hydroxy-5-methyl-1-phenyl-2-(2,4,5-trifluorophenyl)-1,2,3,4,4a,5-hexahydrodipyrido[1,2-b:2′,1′-f][1,2,4]triazine-6,8-dione] the figure was more than 810 nM; with `CN1C(=O)c2c(O)c(=O)ccn2N2C(c3cccc(F)c3)CCCC12` (single isomer, unassigned) [Compound 10B, 1-(3-fluorophenyl)-7-hydroxy-5-methyl-1,2,3,4,4a,5-hexahydrodipyrido[1,2-b:2′,1′-f][1,2,4]triazine-6,8-dione], 86.5 nM; with `CN1C(=O)c2c(O)c(=O)ccn2N2C(c3cccc4ccccc34)CCCC12` (single isomer, unassigned) [Compound 5B, 7-hydroxy-5-methyl-1-(naphthalen-1-yl)-1,2,3,4,4a,5-hexahydrodipyrido[1,2-b:2′,1′-f][1,2,4]triazine-6,8-dione], 1700 nM.

In turn, `CC1(c2ccccc2)CCCC2N(CC3COC3)C(=O)c3c(O)c(=O)ccn3N21` (single isomer, unassigned) [Compound 40A, 7-hydroxy-1-methyl-5-(oxetan-3-ylmethyl)-1-phenyl-1,2,3,4,4a,5-hexahydrodipyrido[1,2-b:2′,1′-f][1,2,4]triazine-6,8-dione] registered an EC50 of 14.4 nM. The compound `CC(C)O[C@H]1CC[C@H]2N(C)C(=O)c3c(O)c(=O)ccn3N2[C@@H]1c1ccccc1` [Compound 155, (1R,2S,4aS)-7-hydroxy-2-isopropoxy-5-methyl-1-phenyl-1,2,3,4,4a,5-hexahydrodipyrido[1,2-b:2′,1′-f][1,2,4]triazine-6,8-dione] gave an EC50 (MDCK, 48 h) of 185 nM.

The compound `CN1C(=O)c2c(O)c(=O)ccn2N2C(c3ccccc3Cl)C(CC(F)(F)F)CCC12` (single isomer, unassigned) [Compound 119A, 1-(2-chlorophenyl)-7-hydroxy-5-methyl-2-(2,2,2-trifluoroethyl)-1,2,3,4,4a,5-hexahydrodipyrido[1,2-b:2′,1′-f][1,2,4]triazine-6,8-dione] displayed an EC50 of 3080 nM. `CC1CC2N(C)C(=O)c3c(O)c(=O)ccn3N2C(C)(c2ccccc2)C1` (single isomer, unassigned) [Compound 43A, 7-hydroxy-1,3,5-trimethyl-1-phenyl-1,2,3,4,4a,5-hexahydrodipyrido[1,2-b:2′,1′-f][1,2,4]triazine-6,8-dione] gave an EC50 of 1170 nM. Consider `COc1c2n(ccc1=O)N1C(c3ccccc3)C(SC(C)C)CCC1N(C)C2=O` (stereo not shown) [Compound 146A, 2-(isopropylthio)-7-methoxy-5-methyl-1-phenyl-1,2,3,4,4a,5-hexahydrodipyrido[1,2-b:2′,1′-f][1,2,4]triazine-6,8-dione], for which the midpoint of the response, the EC50, lay at 18.7 nM. Take `CN1C(=O)c2c(O)c(=O)ccn2N2C(c3ccccc3)C(c3ccc(F)c(F)c3F)CCC12` (single isomer, unassigned) [Compound 85C, 7-hydroxy-5-methyl-1-phenyl-2-(2,3,4-trifluorophenyl)-1,2,3,4,4a,5-hexahydrodipyrido[1,2-b:2′,1′-f][1,2,4]triazine-6,8-dione]: the EC50 was more than 810 nM.
